Experimental data reported in patent US4379165A, “Anti-convulsant” (priority 1981, dated 1983).
“Also recorded” adds a separate entry of the source. Like-named read-outs stand apart in the source and are kept apart here.

Legend:
[1] = tested on: subcutaneous metrazol seizure threshold; assay: subcutaneous Metrazol Seizure Threshold Test (sc Met), rats; conditions: for animals protected vs sc Met test: intraperitoneal, footnote of Table 5; for ED50: Rattus norvegicus, po
Experimental: (§1) The solution was prepared by dissolving the compound in 30% polyethylene glycol 400. The compound was injected either orally or intraperitoneally in a volume of 0.01 ml/g body weight in mice and 0.04 ml/10 g body weight in rats.
(§2) The profile of anti-convulsant activity for each substance was established by five tests: one electrical and four chemical. The electrical test employed was the maximal electroshock seizure (MES) pattern test. The four chemical tests included the subcutaneous Metrazol Seizure Threshold Test (sc Met), subcutaneous Bicuculline Seizure Threshold Test (sc Bic), subcutaneous Picrotoxin Seizure Threshold Test (sc Pic), and the subcutaneous Strychnine Seizure Pattern Test (sc Strych). These tests are conducted by administering the anti-convulsant compound or drug to the animals then giving the convulsive amount of electrical energy or chemical convulsant and measuring the ability of the test compound to prevent the production of convulsions.
(§3) (b) scMet=Subcutaneous metrazol seizure threshold test. The test measures the ability of the test drug to afford complete protection against a subcutaneously administered convulsant dose of metrazol.
(§4) (j) PI=Protective index, defined as the ratio of TD50 to ED50 (TD50/ED50).

[2] = tested on: subcutaneous picrotoxin seizure threshold; assay: animal or person; conditions: Mus musculus, ip, read-out: ED50 Picrotoxin
Experimental: as §1, §2
(§5) (d) scPic=Subcutaneous picrotoxin seizure threshold test.
(§6) (j) PI=Protective index, defined as the ratio of TD50 to ED50 (TD50/ED50). The PI is a measure of the safety of the drug. A high PI value indicates a greater margin of safety between the effective dose for the pharmacological effect and the toxic dose producing side-effects. A compound with a high PI would be a safer drug to use.

[3] = tested on: maximal electroshock seizures; assay: maximal electroshock seizure (MES) pattern test, mice; conditions: for ED50: Mus musculus, read-out: ED50 MES
Experimental: as §1
(§7) The profile of anti-convulsant activity for each substance was established by five tests: one electrical and four chemical. The electrical test employed was the maximal electroshock seizure (MES) pattern test. […] These tests are conducted by administering the anti-convulsant compound or drug to the animals then giving the convulsive amount of electrical energy or chemical convulsant and measuring the ability of the test compound to prevent the production of convulsions.
(§8) This test measures the ability of the test drug to abolish the hind-limb tonic-extensor component of maximal seizures induced by 50 mA of current delivered to the animals for 0.2 seconds.

[4] = tested on: subcutaneous picrotoxin seizure threshold; conditions: mice; for PI (TD50/ED50) Picrotoxin: intraperitoneal
Experimental: as §1, §2, §5, §6

in vivo [5] = conditions: mouse
Experimental: as §1, §7, §8

convulsions = assay: anti-convulsant activity, overall statements from animal studies; format: in vivo; conditions: mice and rats
in vivo [6] = conditions: mouse; remark: listed apart in the source
Experimental: as §1
(§9) Untreated or normal animals can easily maintain their balance in this test.

[7] = tested on: ability to maintain balance on a rotating rod; conditions: mice; intraperitoneal
Experimental: as §1, §9

righting reflex = assay: hypnosis (loss of righting reflex), HD50; conditions: mice; intraperitoneal
Experimental: as §1
(§10) (h) HD50=Hypnotic dose in 50% of the subjects tested.
(§11) (l) Slope of regression line--This represents the rate of change in response (effect) for a change in dose. The higher the numerical value of the slope, the greater the rate of change in response.

[8] = hypnosis (loss of righting reflex), HD50; conditions: mouse, in vivo, ip
Experimental: as §1, §10, §11

[9] = tested on: subcutaneous metrazol seizure threshold; assay: subcutaneous Metrazol Seizure Threshold Test (sc Met), mice; conditions: for ED50: Mus musculus, read-out: ED50 sc Met
Experimental: as §1, §2, §3, §4

[10] = as above; conditions: mouse, in vivo, PI (TD50/ED50) sc Met, mice
Experimental: as §1, §2, §3, §4

[11] = tested on: ability to maintain balance on a rotating rod; assay: Rotorod Toxicity Test, rats; format: in vivo; conditions: for animals toxic: intraperitoneal, footnote of Table 5
Experimental: as §1, §9

[12] = Rotorod Toxicity Test, rats; format: in vivo; conditions: rat, in vivo, po
Experimental: as §1, §9

lethality, LD50 = format: in vivo; conditions: mouse, in vivo, ip, mice, intraperitoneal; for LD50 at 24 h: 24-hour period
Experimental: (§12) The anti-convulsant amide (4) was administered to mice and rats as a solution. The solution was prepared by dissolving the compound in 30% polyethylene glycol 400. The compound was injected either orally or intraperitoneally in a volume of 0.01 ml/g body weight in mice and 0.04 ml/10 g body weight in rats.

[13] = tested on: subcutaneous bicuculline seizure threshold; assay: subcutaneous Bicuculline Seizure Threshold Test (sc Bic); conditions: for ED50: Mus musculus, ip, read-out: ED50 Bicuculline, mice
Experimental: as §1
(§13) The profile of anti-convulsant activity for each substance was established by five tests: one electrical and four chemical. […] The four chemical tests included the subcutaneous Metrazol Seizure Threshold Test (sc Met), subcutaneous Bicuculline Seizure Threshold Test (sc Bic), subcutaneous Picrotoxin Seizure Threshold Test (sc Pic), and the subcutaneous Strychnine Seizure Pattern Test (sc Strych). These tests are conducted by administering the anti-convulsant compound or drug to the animals then giving the convulsive amount of electrical energy or chemical convulsant and measuring the ability of the test compound to prevent the production of convulsions.
(c) scBic=Subcutaneous bicuculline seizure threshold test.
as §4

[14] = tested on: maximal electroshock seizures; assay: maximal electroshock seizure (MES) pattern test, rats; conditions: for ED50: Rattus norvegicus, po, read-out: ED50 MES
Experimental: as §1, §7, §8

[15] = as above; conditions: rat, in vivo, po, PI (TD50/ED50) MES, rats (Table 7; title of Table 5 prints Mice)
Experimental: as §1, §7, §8

[16] = tested on: subcutaneous strychnine seizure pattern; conditions: mice
Experimental: as §1, §13
(§14) (e) ScStrych=Subcutaneous strychnine seizure pattern test. The test measures the ability of the test drug to abolish all toxic components of seizures induced by the subcutaneous injection of a convulsant dose of strychnine.

[17] = tested on: Salmonella indicator organisms; assay: in vitro microbial mutagenicity assays; conditions: 1.0 ug to 10,000.0 ug per plate
Experimental: The amide was examined for mutagenic activity in a series of in vitro microbial assays employing Salmonella indicator organisms. The compound was tested directly and in the presence of liver microsomal enzyme preparations from Aroclor-induced rats. The dose range employed for the evaluation was from 1.0 ug to 10,000.0 ug per plate. The results of the tests conducted on the amide in the absence of a metabolic activation system and in the presence of a rat liver activation system were negative.

in vivo [18] = conditions: mouse, ip
Experimental: as §1, §10, §11

[19] = tested on: subcutaneous strychnine seizure pattern; assay: animal or person; conditions: Mus musculus, ip, read-out: ED50 Strychnine
Experimental: as §1, §13, §14

[20] = subcutaneous Metrazol Seizure Threshold Test (sc Met), rats; conditions: rat, in vivo, po
Experimental: as §1, §2, §3, §4

lethality = assay: lethality, LD50; format: in vivo; conditions: mice; intraperitoneal; 24-hour period
Experimental: as §12

[21] = rats (Table 7; title of Table 5 prints Mice), oral, at 300 (mg/kg)
[22] = rats (Table 7; title of Table 5 prints Mice), oral

CC(NC(=O)c1ccc(N)cc1)c1ccccc1 (stereo not drawn) [4-amino-N-(alpha-methylbenzyl)-benzamide]
animals protected vs sc Met test ([1]; 75 mg/kg): 4/8
animals protected vs sc Met test ([1]; 150 mg/kg): 8/8
Max. Prot., sc Met [1, 21]: 50%
animals with recurring clonic seizures, sc Met [1, 21]: 1 of 8
ED50 [2]: 191 mg/kg
oral ED50/i.p. ED50 ([3]; MES test in mice): 2.65
ED50 ([3]; ip): 18 mg/kg
ED50 ([3]; po): 47.7 mg/kg
absorption after oral administration ([3]; mice, from oral ED50/i.p. ED50 in MES test): adequately absorbed
activity against picrotoxin seizures ([4]; in words): effective against picrotoxin seizures in toxic doses
PI (TD50/ED50) Picrotoxin [4]: 0.89
selectivity ratio (in vivo [5]; ip): 9.48
selectivity ratio (in vivo [5]; po): 5.69
anti-convulsant activity in words (convulsions): effective against a wide range of convulsion types; also recorded: exhibits anti-convulsant activity in mice and rats
TD50 (in vivo [6]; ip): 171 mg/kg
TD50 (in vivo [6]; po): 271 mg/kg
Rotorod TD50 [7]: 170.78 mg/kg
HD50 (righting reflex) (righting reflex): 461.76 mg/kg
TD50 [8]: 462 mg/kg
ED50 ([9]; ip): 41.7 mg/kg
Maximum protection, sc Met ([9]; mice, oral, at 100 (mg/kg)): 25%
protection, sc Met ([9]; mice, oral, at / up to 300 (mg/kg)): no protection and No
selectivity ratio ([10]; intraperitoneal): 4.09
selectivity ratio ([10]; oral): < 0.9
animals toxic ([11]; 75 mg/kg): 2/8
animals toxic ([11]; 150 mg/kg): 6/8
TD50 [12]: 170 mg/kg
selectivity ratio (lethality, LD50; read-out: Ratio LD50/HD50): 1.56
selectivity ratio (lethality, LD50; read-out: Ratio LD50/TD50): 4.21
LD50 at 24 h (lethality, LD50): 718 mg/kg
ED50 ([13]; intraperitoneal): 39.1 mg/kg
activity against seizures induced by bicuculline ([13]; mice, in words): effective against seizures induced by bicuculline
PI (TD50/ED50) Bicuculline ([13]; mice, intraperitoneal): 4.37
ED50 [14]: 16.1 mg/kg
PI (TD50/ED50) MES [14, 22]: 10.5
selectivity ratio [15]: 10.6
activity against seizures induced by strychnine ([16]; in words): only partially effective
PI (TD50/ED50) Strychnine ([16]; intraperitoneal): < 0.85
Maximum protection, Strychnine ([16]; intraperitoneal, at 170 mg/kg): 37.5%
protection, Strychnine ([16]; intraperitoneal, at 200 (mg/kg)): 25%
mutagenic activity ([17]; absence of a metabolic activation system): negative
mutagenic activity ([17]; rat liver activation system): negative

NC(=O)N1c2ccccc2C=Cc2ccccc21 [Carbamazepine]
sc Met result in words [1, 22]: Variable
ED50 [2]: 37.2 mg/kg
ED50 ([3]; ip): 8.81 mg/kg
ED50 ([3]; po): 15.4 mg/kg
ED50 ([9]; po): 48.1 mg/kg
protection, sc Met ([9]; mice, intraperitoneal, up to 100 (mg/kg)): No protection; also recorded: No protect-
LD50 at 24 h (lethality, LD50): 629 mg/kg
TD50 (in vivo [18]): 172 mg/kg
ED50 [19]: 78.8 mg/kg
fraction protected, Bicuculline ([13]; mice, intraperitoneal, 100 mg/kg): 1/2
Max. Prot., Bicuculline ([13]; mice, intraperitoneal, at 50-130 (mg/kg)): 62.5%
ED50 [14]: 8.5 mg/kg

CCC1(c2ccccc2)NC(=O)N(C)C1=O (stereo not drawn) [Mephenytoin]
ED50 ([1]; read-out: ED50 sc Met): 21.6 mg/kg
selectivity ratio [20]: 3.96
ED50 [2]: 101 mg/kg
ED50 ([3]; ip): 60.5 mg/kg
ED50 ([3]; po): 65.9 mg/kg
PI (TD50/ED50) Picrotoxin [4]: 1.52
selectivity ratio (in vivo [5]; ip, PI (TD50/ED50) MES, mice, intraperitoneal): 2.54
selectivity ratio (in vivo [5]; po, PI (TD50/ED50) MES, mice): 5.37
TD50 (in vivo [6]; po): 354 mg/kg
ED50 ([9]; ip): 30.4 mg/kg
ED50 ([9]; po): 36.3 mg/kg
PI (TD50/ED50) sc Met ([9]; mice, oral): 9.73
selectivity ratio ([10]; intraperitoneal): 5.05
selectivity ratio ([10]; oral): 9.75
TD50 [12]: 85.7 mg/kg
selectivity ratio (lethality, LD50; read-out: Ratio LD50/HD50): 1.4
selectivity ratio (lethality, LD50; read-out: Ratio LD50/TD50): 3.69
LD50 at 24 h (lethality, LD50): 568 mg/kg
TD50 (in vivo [18]): 406 mg/kg
PI (TD50/ED50) Bicuculline ([13]; mice, intraperitoneal): 1.24
ED50 [14]: 18.1 mg/kg
selectivity ratio [15]: 4.74
Max. Prot., Strychnine ([16]; intraperitoneal, at 70-150 (mg/kg)): 50%

Nc1ccc(C(=O)NCc2ccccc2)cc1 [No. 4, 4-amino-N-benzyl-benzamide]
ED50 ([3]; ip): 23.3 mg/kg
TD50 (in vivo [6]; ip): 83.4 mg/kg

CCC1(c2ccccc2)C(=O)NC(=O)NC1=O [Phenobarbital]
ED50 ([1]; read-out: ED50 sc Met, rats (Table 7; title of Table 5 prints Mice), oral): 11.6 mg/kg
ED50 sc Met [1, 22]: 11.58 mg/kg
ED50 [2]: 27.5 mg/kg
ED50 ([3]; ip): 21.8 mg/kg
ED50 ([3]; po): 20.1 mg/kg
HD50 (righting reflex) (righting reflex): 135.45 mg/kg
TD50 [8]: 135 mg/kg
ED50 ([9]; ip): 13.2 mg/kg
ED50 ([9]; po): 12.6 mg/kg
Rotorod TD50 [11, 22]: 61.09 mg/kg
LD50 (lethality) (lethality): 264.70 mg/kg
ED50 [19]: 95.3 mg/kg
ED50 ([13]; intraperitoneal): 37.7 mg/kg
ED50 [14]: 9.14 mg/kg
